Test [1] relates to WiDr cell lines of human colon cancer. As to conditions: cited from earlier work.
The test system of test [2] is HUVEC. In words: HUVEC cell migration (chemotaxis) assay, Boyden chamber (NCI). The format is cell-based, human. As to conditions: Homo sapiens, 5 h. On the procedure:
Angiogenesis assays were provided by the NCI, details of the assay protocols are given below. In each assays TNP-470 and paclitaxel (Taxol®) were used as reference compounds. Migration was assessed using the 48-well Boyden chamber and 8 μm pore size collagen-coated (10 μg/mL rat tail collagen; Collaborative Laboratories) polycarbonate filters (Osmonics, Inc.). The bottom chamber wells received 27-29 μL of DMEM medium alone (baseline) or medium containing chemo-attractant (bFGF, VEGF or Swiss 3T3 cell conditioned medium). The top chambers received 45 μL of HUVEC cell suspension (1×10^6 cells/mL) prepared in DMEM+1% BSA with or without test compound. After 5 h incubation at 37° C., the membrane was rinsed in PBS, fixed and stained in Diff-Quick solutions. The filter was placed on a glass slide with the migrated cells facing down and cells on top were removed using a Kimwipe. The testing was performed in 4-6 replicates and five fields were counted from each well. Negative, unstimulated, control values were subtracted from stimulated control and drug treated values and data was plotted as mean migrated cell±S.D. The IC50 was calculated from the plotted data.

Test [3] has as its target T1, FBP21 (Homo sapiens, UniProt O75554).
T1 construct: encode 99 amino acids in frame with the phage coat protein of which a segment of 83 residues share 100% homology with FBP21; purchased Novagen; host or cells: T7 phage amplified in E. coli BLT5403
T1 sequence (O75554 with tags, fused parts or gaps): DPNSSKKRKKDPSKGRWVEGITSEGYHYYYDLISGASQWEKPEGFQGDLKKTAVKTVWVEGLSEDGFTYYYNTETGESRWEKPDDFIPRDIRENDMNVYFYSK
The test can be described thus: Phage display biopanning with biotinylated bait, Human Colon Tumour Library. The format is binding. To be noted: SDS and E. coli elution. On the procedure: Streptavidin wells were incubated with 1 μM biotinylated probe at 4° C. overnight to prepare the wells for biopanning. After incubation, unbound biotinylated probe was removed from the well by washing with phosphate buffered saline (PBS). Wells were then blocked with blocking solution (3% skimmed milk in PBS) for at least one hour at room temperature. Blocked wells were then briefly washed with PBS and were ready for biopanning use. […] In the first round of biopanning, 0.15 mL of amplified phage library was added to an empty streptavidin coated well and incubated at room temperature for at least 1 hour. This step was included to deselect any phage displaying streptavidin binding proteins. After incubation, the phage were removed from the well and mixed with 50 μL 4× blocking solution (12% skimmed milk in PBS) and incubated at room temperature for at least one hour. 0.125 mL of blocked phage library was added to each pre-prepared biotinylated well and incubated at room temperature for at least one hour. […] After incubation, unbound phage were removed from the well with wash solution. The wash solution was varied depending on the round of biopanning. For first round of biopanning PBS1 was used. For subsequent rounds the stringency of the wash was increased by using sequentially PBS2, PBS3 and PBS4 (see Table I). […]

Test [4] deals with WiDr cells induced angiogenesis. To be noted: 1.8 mg/kg intraperitoneal injection, mouse dorsal air sac model; cited from earlier work.
Test [5] deals with HUVEC. In words: HUVEC growth inhibition assay (NCI). The format is cell-based, human. As to conditions: Homo sapiens, 72 h, crystal violet. On the procedure:
Angiogenesis assays were provided by the NCI, details of the assay protocols are given below. In each assays TNP-470 and paclitaxel (Taxol®) were used as reference compounds. HUVEC (1.5×10^3) were plated in a 96-well plate in 100 μL of EBM-2 (Clonetic #CC3162). […] On day 0, one plate was stained with 0.5% crystal violet in 20% methanol for 10 minutes, rinsed with water, and air-dried. The remaining plates were incubated for 72 h at 37° C. After 72 h, plates were stained with 0.5% crystal violet in 20% methanol, rinsed with water and air-dried. The stain was eluted with 1:1 solution of ethanol:0.1 M sodium citrate (including day 0 plate), and absorbance was measured at 540 nm with an ELISA reader (Dynatech Laboratories). Day 0 absorbance was subtracted from the 72 h plates and data was plotted as percentage of control proliferation (vehicle treated cells).

Test [6] concerns human umbilical vein endothelial cells (HUVEC). As to conditions: cited from earlier work.
Test [7] relates to B16-BL6 melanoma cells. As to conditions: same dosage (1.8 mg/kg); cited from earlier work.
The test system of test [8] is VEGFxxx and VEGFxxxb expression in RPE cells. The test can be described thus: VEGF isoform ELISA of media of treated RPE cells. The format is cell-based. As to conditions: 0.5 μM or 5 μM, 72 hours. On the procedure:
Media was sampled after 72 hours treatment, and assessed for total VEGF and VEGFxxxb expression (see Bates et al., 2002, Woolard et al., 2004 and Varey et al., 2008 for methods).

For test [9], the system named is PC-3 cell lines of human prostate cancer. To be noted: cited from earlier work.
The subject of test [10] is Lewis lung adenocarcinoma. As to conditions: Lewis lung adenocarcinoma model; cited from earlier work.
For test [11], the system named is capillary tube formation. As to conditions: rat aorta matrix culture model, cited from earlier work.
The test system of test [12] is protein synthesis in the cultured rat cells. To be noted: cited from earlier work.
Test [13] deals with HUVEC. The test can be described thus: HUVEC cord formation assay on matrigel (NCI). The format is cell-based, human. As to conditions: Homo sapiens, 24 h. On the procedure:
Angiogenesis assays were provided by the NCI, details of the assay protocols are given below. In each assays TNP-470 and paclitaxel (Taxol®) were used as reference compounds. Matrigel (60 μL of 10 mg/mL; Collaborative Lab #35423) was placed in each well of an ice-cold 96-well plate. The plate was allowed to sit at room temperature for 15 minutes then it was incubated at 37° C. for 30 minutes to permit the matrigel to polymerize. In the mean time, HUVEC were prepared in EGM-2 (Clonetic #CC3162) at a concentration of 2×10^5 cells/mL. […] The cells (500 μL) and the drug at 2 times concentration (500 μL) were mixed and 200 μL of this suspension was placed in duplicate on the polymerized matrigel. After 24 h incubation, triplicate pictures were taken for each concentration using a Bioquant Image Analysis system. Drug effect (IC50) is assessed compared to untreated controls by measuring the length of cords formed and number of junctions.

As for `C[C@@H]1C[C@H](C)C[C@H](C)[C@@H](O)CC(=O)O[C@H]([C@@H]2CCC[C@H]2C(=O)O)C/C=C/C=C(/C#N)[C@H](O)[C@@H](C)C1` [Borrelidin], in test [1], the “effect against WiDr cell lines” value is given as “effective against WiDr cell lines”. Also, the 50% inhibitory concentration (IC50) in test [2] is 63 nM; in test [5], 3.25 nM; in test [11] (read-out: inhibition of capillary tube formation, IC50), 0.8 nM; in [13], 46.5 nM. Further, the “identification of FBP21 fragment by biopanning (binding)” value in test [3] is “consistently identified an FBP21 fragment”. Also, the “increment of vascular volume induced by WiDr cells” value in test [4] is given as “significantly reduce the increment of vascular volume”. Besides, in [6] (cell growth assay), the “anti-proliferative activity towards HUVEC, IC50” value is 6 ng/mL. For the same compound, the “HUVEC anti-proliferative IC50 weaker than anti-angiogenesis activity” value in test [6] (measured in the same medium) was 15 fold. The “formation of spontaneous lung metastases of B16-BL6 melanoma cells” value in [7] is “effective for the inhibition of the formation of spontaneous lung metastases”. Moreover, the “VEGFxxx expression (ELISA)” value in test [8] is listed as “significant downregulation”. Besides, in test [8], the “VEGFxxxb expression (ELISA)” value was “significant upregulation”. Besides, the “effect against PC-3 cell lines” value in test [9] is reported as “also against PC-3 cell lines”. Also, the “propagation of metastatic nodules after removal of the primary tumour” value in [10] was “weakly inhibited”. In addition, in test [11], the “inhibition of capillary tube formation, IC50” value is 0.4 ng/mL. For the same compound, in [12], the “anti-angiogenesis IC50 lower than IC50 for inhibition of protein synthesis” value was 50 fold. Moreover, the “inhibition of protein synthesis, IC50” value in test [12] (cultured rat cells) was 20 ng/mL.

Values taken from patent publication US20110027185A1, “Methods of Screening for Anti-Angiogenic Compounds” (priority 2007, published 2011).
